In ChEMBL document CHEMBL4028802, “DILIrank: the largest reference drug list ranked by the risk for developing drug-induced liver injury in humans” (Drug Discov Today, 2016):

Experiments:
[1] = species on record: Homo sapiens; test: Liver toxicity in human assessed as induction of drug-induced liver injury by measuring severity class index
[2] = species on record: Homo sapiens; test: Liver toxicity in human assessed as induction of drug-induced liver injury by measuring verified drug-induced liver injury concern status
Wherever DILI severity class is given: key of the grades not given here.

| Compound | DILI_severity_class [1] | DILI_Concern [2] |
| --- | --- | --- |
| CC1(C)C(/C=C/C=C/C=C/C=C2/N(CCCCS(=O)(=O)[O-])c3ccc4ccccc4c3C2(C)C)=[N+](CCCCS(=O)(=O)[O-])c2ccc3ccccc3c21.[Na+] [INDOCYANINE GREEN] | 0 | No-Dili-Concern |
| COc1ccc2c(c1)c(CC(=O)O)c(C)n2C(=O)c1ccc(Cl)cc1 [INDOMETHACIN] | 8 | Most-Dili-Concern |
| CNC[C@H](O)[C@@H](O)[C@H](O)[C@H](O)CO.CNC[C@H](O)[C@@H](O)[C@H](O)[C@H](O)CO.O=C(CCCCC(=O)Nc1c(I)cc(I)c(C(=O)O)c1I)Nc1c(I)cc(I)c(C(=O)O)c1I [IODIPAMIDE MEGLUMINE] | 0 | No-Dili-Concern |
| CNC(=O)c1c(I)c(NC(C)=O)c(I)c(C(=O)[O-])c1I.[Na+] [IOTHALAMATE SODIUM] | 0 | No-Dili-Concern |
| O=C(NCC(O)CO)c1c(I)c(C(=O)NCC(O)CO)c(I)c(N(CCO)C(=O)CO)c1I (stereo unspecified) [IOVERSOL] | 0 | No-Dili-Concern |
| CC(C)NNC(=O)c1ccncc1 [IPRONIAZID] | 8 | Most-Dili-Concern |
| CCCCC1=NC2(CCCC2)C(=O)N1Cc1ccc(-c2ccccc2-c2nnn[nH]2)cc1 [IRBESARTAN] | 5 | Less-Dili-Concern |
| CCc1c2c(nc3ccc(OC(=O)N4CCC(N5CCCCC5)CC4)cc13)-c1cc3c(c(=O)n1C2)COC(=O)[C@]3(O)CC [IRINOTECAN] | 3 | Less-Dili-Concern |
| CC(C)Nc1ncccn1 [ISAXONINE] | 8 | Most-Dili-Concern |
| Cc1cc(C(=O)NNCc2ccccc2)no1 [ISOCARBOXAZID] | 5 | Ambiguous-Dili-Concern |
| NNC(=O)c1ccncc1 [ISONIAZID] | 8 | Most-Dili-Concern |
| CC(C)NCC(O)c1ccc(O)c(O)c1 (stereo unspecified) [ISOPROTERENOL] | 0 | No-Dili-Concern |
| O=[N+]([O-])O[C@H]1CO[C@H]2[C@@H]1OC[C@H]2O[N+](=O)[O-] [ISOSORBIDE DINITRATE] | 0 | No-Dili-Concern |
| CC1=C(/C=C/C(C)=C/C=C/C(C)=C\C(=O)O)C(C)(C)CCC1 [ISOTRETINOIN] | 5 | Most-Dili-Concern |
| CC(COc1ccccc1)NC(C)C(O)c1ccc(O)cc1 (stereo unspecified) [ISOXSUPRINE] | 0 | No-Dili-Concern |
| COC(=O)C1=C(C)NC(C)=C(C(=O)OC(C)C)C1c1cccc2nonc12 (stereo unspecified) [ISRADIPINE] | 3 | Less-Dili-Concern |
| CCC(C)n1ncn(-c2ccc(N3CCN(c4ccc(OCC5COC(Cn6cncn6)(c6ccc(Cl)cc6Cl)O5)cc4)CC3)cc2)c1=O (stereo unspecified) [ITRACONAZOLE] | 8 | Most-Dili-Concern |
| C/C(=C\c1csc(C)n1)[C@@H]1C[C@@H]2O[C@]2(C)CCC[C@H](C)[C@H](O)[C@@H](C)C(=O)C(C)(C)[C@@H](O)CC(=O)N1 [IXABEPILONE] | 7 | Ambiguous-Dili-Concern |
| CNC1(c2ccccc2Cl)CCCCC1=O (stereo unspecified) [KETAMINE] | 0 | Less-Dili-Concern |
| CC(=O)N1CCN(c2ccc(OCC3COC(Cn4ccnc4)(c4ccc(Cl)cc4Cl)O3)cc2)CC1 (stereo unspecified) [KETOCONAZOLE] | 8 | Most-Dili-Concern |

| Compound | DILI_severity_class [1] | DILI_Concern [2] |
| --- | --- | --- |
| CC(C(=O)O)c1cccc(C(=O)c2ccccc2)c1 (stereo unspecified) [KETOPROFEN] | 3 | Less-Dili-Concern |
| O=C(c1ccccc1)c1ccc2n1CCC2C(=O)O (stereo unspecified) [KETOROLAC] | 3 | Less-Dili-Concern |
| CC(CCc1ccccc1)NCC(O)c1ccc(O)c(C(N)=O)c1 (stereo unspecified) [LABETALOL] | 8 | Most-Dili-Concern |
| COC[C@@H](NC(C)=O)C(=O)NCc1ccccc1 [LACOSAMIDE] | 3 | Ambiguous-Dili-Concern |
| OC[C@H]1O[C@@H](O[C@@H]2[C@@H](CO)O[C@](O)(CO)[C@H]2O)[C@H](O)[C@@H](O)[C@H]1O [LACTULOSE] | 0 | No-Dili-Concern |
| Nc1ccn([C@@H]2CS[C@H](CO)O2)c(=O)n1 [LAMIVUDINE] | 3 | Less-Dili-Concern |
| Nc1nnc(-c2cccc(Cl)c2Cl)c(N)n1 [LAMOTRIGINE] | 7 | Most-Dili-Concern |
| CC(=O)O.CC(C)[C@@H]1NC(=O)[C@H](CCCCN)NC(=O)[C@@H](Cc2c[nH]c3ccccc23)NC(=O)[C@H](Cc2ccc(O)cc2)NC(=O)[C@@H](NC(=O)[C@H](N)Cc2ccc3ccccc3c2)CSSC[C@@H](C(=O)N[C@H](C(N)=O)[C@@H](C)O)NC1=O [LANREOTIDE ACETATE] | 2 | Ambiguous-Dili-Concern |
| Cc1c(OCC(F)(F)F)ccnc1C[S+]([O-])c1nc2ccccc2[nH]1 (stereo unspecified) [LANSOPRAZOLE] | 3 | Less-Dili-Concern |
| CS(=O)(=O)CCNCc1ccc(-c2ccc3ncnc(Nc4ccc(OCc5cccc(F)c5)c(Cl)c4)c3c2)o1 [LAPATINIB] | 8 | Most-Dili-Concern |
| Cc1oncc1C(=O)Nc1ccc(C(F)(F)F)cc1 [LEFLUNOMIDE] | 8 | Most-Dili-Concern |
| Nc1cccc2c1CN(C1CCC(=O)NC1=O)C2=O (stereo unspecified) [LENALIDOMIDE] | 3 | Less-Dili-Concern |
| N#Cc1ccc(C(c2ccc(C#N)cc2)n2cncn2)cc1 [LETROZOLE] | 2 | Less-Dili-Concern |
| Nc1nc(=O)c2c([nH]1)NCC(CNc1ccc(C(=O)N[C@@H](CCC(=O)[O-])C(=O)[O-])cc1)N2C=O.[Ca+2] (stereo partly specified) [LEUCOVORIN CALCIUM] | 0 | No-Dili-Concern |
| Nc1nc2c(c(=O)[nH]1)N(C=O)C(CNc1ccc(C(=O)N[C@@H](CCC(=O)O)C(=O)O)cc1)CN2 (stereo partly specified) [LEUCOVORIN] | 0 | No-Dili-Concern |
| C[N+](C)(C)C[C@H](O)CC(=O)[O-] [LEVOCARNITINE] | 0 | No-Dili-Concern |
| Cl.Cl.O=C(O)COCCN1CCN([C@H](c2ccccc2)c2ccc(Cl)cc2)CC1 [LEVOCETIRIZINE DIHYDROCHLORIDE] | 4 | Less-Dili-Concern |
| C[C@H]1COc2c(N3CCN(C)CC3)c(F)cc3c(=O)c(C(=O)O)cn1c23.C[C@H]1COc2c(N3CCN(C)CC3)c(F)cc3c(=O)c(C(=O)O)cn1c23.O [LEVOFLOXACIN] | 8 | Most-Dili-Concern |
| CN1c2c(nc(N)[nH]c2=O)NC[C@@H]1CNc1ccc(C(=O)N[C@@H](CCC(=O)[O-])C(=O)[O-])cc1.[Ca+2] [LEVOMEFOLATE CALCIUM] | 0 | No-Dili-Concern |
| C#C[C@]1(O)CC[C@H]2[C@@H]3CCC4=CC(=O)CC[C@@H]4[C@H]3CC[C@@]21CC [LEVONORGESTREL] | 0 | No-Dili-Concern |

| Compound | DILI_severity_class [1] | DILI_Concern [2] |
| --- | --- | --- |
| CN1CC[C@]23CCCC[C@H]2[C@H]1Cc1ccc(O)cc13 [LEVORPHANOL] | 0 | No-Dili-Concern |
| N[C@@H](Cc1cc(I)c(Oc2cc(I)c(O)c(I)c2)c(I)c1)C(=O)O [LEVOTHYROXINE] | 3 | Less-Dili-Concern |
| CCN(CC)CC(=O)Nc1c(C)cccc1C [LIDOCAINE] | 0 | No-Dili-Concern |
| CCC[C@@H]1C[C@@H](C(=O)N[C@@H]([C@H]2O[C@H](SC)[C@H](O)[C@@H](O)[C@H]2O)[C@@H](C)O)N(C)C1 [LINCOMYCIN] | 3 | Ambiguous-Dili-Concern |
| CC(=O)NC[C@H]1CN(c2ccc(N3CCOCC3)c(F)c2)C(=O)O1 [LINEZOLID] | 3 | Less-Dili-Concern |
| N[C@@H](Cc1cc(I)c(Oc2ccc(O)c(I)c2)c(I)c1)C(=O)O [LIOTHYRONINE] | 0 | No-Dili-Concern |
| C[C@@H](Cc1ccccc1)NC(=O)[C@@H](N)CCCCN [LISDEXAMFETAMINE] | 3 | Ambiguous-Dili-Concern |
| NCCCC[C@H](N[C@@H](CCc1ccccc1)C(=O)O)C(=O)N1CCC[C@H]1C(=O)O [LISINOPRIL ANHYDROUS] | 3 | Less-Dili-Concern |
| O=NN(CCCl)C(=O)NC1CCCCC1 [LOMUSTINE] | 3 | Less-Dili-Concern |
| CN(C)C(=O)C(CCN1CCC(O)(c2ccc(Cl)cc2)CC1)(c1ccccc1)c1ccccc1 [LOPERAMIDE] | 0 | No-Dili-Concern |
| N[C@@H](C(=O)N[C@@H]1C(=O)N2C(C(=O)O)=C(Cl)CC[C@H]12)c1ccccc1 [LORACARBEF ANHYDROUS] | 3 | Less-Dili-Concern |
| O=C1Nc2ccc(Cl)cc2C(c2ccccc2Cl)=NC1O (stereo unspecified) [LORAZEPAM] | 3 | Ambiguous-Dili-Concern |
| CCCCc1nc(Cl)c(CO)n1Cc1ccc(-c2ccccc2-c2nn[nH]n2)cc1 [LOSARTAN] | 4 | Less-Dili-Concern |
| CN1CCN(C2=Nc3ccccc3Oc3ccc(Cl)cc32)CC1 [LOXAPINE] | 5 | Ambiguous-Dili-Concern |
| CCCCC(F)(F)[C@@]1(O)CC[C@H]2[C@@H](CC(=O)[C@@H]2CCCCCCC(=O)O)O1 [LUBIPROSTONE] | 0 | No-Dili-Concern |
| Cc1ccc(Nc2c(F)cccc2Cl)c(CC(=O)O)c1 [LUMIRACOXIB] | 8 | Most-Dili-Concern |
| OC[C@@H](O)[C@@H](O)[C@H](O)[C@H](O)CO [MANNITOL] | 0 | No-Dili-Concern |
| CNCCCC12CCC(c3ccccc31)c1ccccc12 [MAPROTILINE] | 5 | Ambiguous-Dili-Concern |
